From patent publication US20090069320A1, “Substituted 4-Amino-Quinazoline Compounds with Metabotropic Glutamate Receptor Regulating Activity and Uses Thereof” (Gruenenthal GmbH, priority 2006, published 2009) come the findings set out here.

The structures appear in SMILES notation. Where a name gives a salt, the structure may show the parent alone.

T1 sequence (I3LUI7 19-1212): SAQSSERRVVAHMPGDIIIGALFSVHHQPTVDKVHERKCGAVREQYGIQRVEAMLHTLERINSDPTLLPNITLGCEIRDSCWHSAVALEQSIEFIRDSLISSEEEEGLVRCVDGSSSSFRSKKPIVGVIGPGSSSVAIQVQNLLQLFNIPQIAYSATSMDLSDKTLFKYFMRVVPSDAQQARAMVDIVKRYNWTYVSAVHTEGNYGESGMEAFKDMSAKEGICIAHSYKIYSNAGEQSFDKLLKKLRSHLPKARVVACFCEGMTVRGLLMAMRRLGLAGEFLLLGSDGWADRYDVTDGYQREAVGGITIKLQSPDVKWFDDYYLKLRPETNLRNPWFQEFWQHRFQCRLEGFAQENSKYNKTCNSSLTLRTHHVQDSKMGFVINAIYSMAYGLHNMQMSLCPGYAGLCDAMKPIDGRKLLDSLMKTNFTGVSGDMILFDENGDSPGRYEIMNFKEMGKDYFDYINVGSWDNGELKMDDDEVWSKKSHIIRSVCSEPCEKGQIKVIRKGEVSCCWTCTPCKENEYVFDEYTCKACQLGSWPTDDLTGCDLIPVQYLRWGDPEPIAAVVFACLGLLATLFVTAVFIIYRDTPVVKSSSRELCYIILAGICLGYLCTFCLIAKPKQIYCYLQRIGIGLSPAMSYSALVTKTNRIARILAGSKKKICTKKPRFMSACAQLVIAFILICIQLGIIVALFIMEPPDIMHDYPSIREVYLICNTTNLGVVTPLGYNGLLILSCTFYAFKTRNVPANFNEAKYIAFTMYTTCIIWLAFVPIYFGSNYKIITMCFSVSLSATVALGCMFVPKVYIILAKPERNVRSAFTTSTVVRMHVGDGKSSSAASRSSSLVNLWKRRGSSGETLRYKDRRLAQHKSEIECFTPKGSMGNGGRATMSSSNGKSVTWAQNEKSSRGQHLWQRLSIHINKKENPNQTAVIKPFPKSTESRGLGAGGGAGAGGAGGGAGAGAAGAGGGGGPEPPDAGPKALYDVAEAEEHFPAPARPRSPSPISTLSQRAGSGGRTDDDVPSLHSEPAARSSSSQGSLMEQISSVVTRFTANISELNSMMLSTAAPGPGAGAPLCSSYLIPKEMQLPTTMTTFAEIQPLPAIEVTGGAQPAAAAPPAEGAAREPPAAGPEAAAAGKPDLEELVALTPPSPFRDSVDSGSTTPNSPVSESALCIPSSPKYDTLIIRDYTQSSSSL

One experiment has as its target T1, mGluR5 receptor (Sus scrofa, UniProt I3LUI7).
T1 construct: 450 μg of protein from brain homogenate with 5 nM ^3[H]-MPEP; from tissue; host or cells: pig brain halves without medulla, cerebellum and pons
In words: [3H]-MPEP mGluR5 receptor binding assay (pig brain homogenate). To be noted: 5 nM [3H]-MPEP, read-out: IC50 mGluR5 Receptor (pig) [^3H]-MPEP Bond. In a few lines: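 Radioligand displacement of 5 nM [3H]-MPEP from pig brain homogenate (450 μg protein; medulla, cerebellum and pons removed) in 20 mM Hepes pH 8.0. Compounds were tested at 10 μM, incubated 60 min at room temperature, then filtered and counted by scintillation. Non-specific binding was defined with 10 μM MPEP.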
A word on the IC50: it is the midpoint of a concentration-inhibition curve. Take `CC(C)(C)Nc1ncnc2ccc(-c3ccc(F)c(CNC4CC4)c3)cc12` [Example 322, N-tert-butyl-6-(3-((cyclopropylamino)methyl)-4-fluorophenyl)quinazoline-4-amine]: the concentration for half-maximal inhibition (IC50) turned out to be 2980 nM. Consider `COCC(=O)N(Cc1cc(-c2ccc3ncnc(NC4CC4)c3c2)ccc1F)C1CC1` [Example 390, N-cyclopropyl-N-(5-(4-(cyclopropylamino)quinazolin-6-yl)-2-fluorobenzyl)-2-methoxyacetamide], for which the IC50 was found to be 70 nM.

Staying with this experiment, now noted: 10 μM compound, 5 nM [3H]-MPEP.
On to `O=S(=O)(c1ccccc1)N(Cc1cc(-c2ccc3ncnc(NC4CC4)c3c2)ccc1F)C1CC1` [Example 368, N-cyclopropyl-N-(5-(4-(cyclopropylamino)quinazolin-6-yl)-2-fluorobenzyl)benzole sulfonamide], for which the “% Inhibition of mGluR5 Receptor (pig) [^3H]-MPEP Bond at 10 μM” value (“% Inhibition of mGluR5 Receptor (pig)” below) is recorded as 85%. `O=S(=O)(c1cccc(C(F)(F)F)c1)N(Cc1cc(-c2ccc3ncnc(NC4CC4)c3c2)ccc1F)C1CC1` [Example 375, N-cyclopropyl-N-(5-(4-(cyclopropylamino)quinazolin-6-yl)-2-fluorobenzyl)-3-(trifluoromethyl)benzole sulfonamide]: the “% Inhibition of mGluR5 Receptor (pig)” value is 34%. As for `COc1ccc(S(=O)(=O)N(Cc2cc(-c3ccc4ncnc(NC5CC5)c4c3)ccc2F)C2CC2)cc1` [Example 383, N-cyclopropyl-N-(5-(4-(cyclopropylamino)quinazolin-6-yl)-2-fluorobenzyl)-4-methoxybenzole sulfonamide], the “% Inhibition of mGluR5 Receptor (pig)” value is reported as 69%.

With `O=S(=O)(c1ccc(Cl)cc1Cl)N(Cc1cc(-c2ccc3ncnc(NC4CC4)c3c2)ccc1F)C1CC1` [Example 391, 2,4-dichloro-N-cyclopropyl-N-(5-(4-(cyclopropylamino)quinazolin-6-yl)-2-fluorobenzyl)benzole sulfonamide], the “% Inhibition of mGluR5 Receptor (pig)” value came out at 74%.

Still in this experiment, the particulars now being: 10 μM compound, 5 nM [3H]-MPEP, read-out: % Inhibition of mGluR5 Receptor (pig) [^3H]-MPEP Bond at 10 μM.
One may read the inhibition as the percentage by which the read-out fell short of the control. In the case of `CCCCNCc1cccc(-c2ccc3ncnc(NC4CC4)c3c2)c1` [Example 310, 6-(3-((butylamino)methyl)phenyl)-N-cyclopropylquinazoline-4-amine], the inhibition at 10 µM was found to be 50%. As to `c1cc(CNCc2ccco2)cc(-c2ccc3ncnc(NC4CC4)c3c2)c1` [Example 312, N-cyclopropyl-6-(3-((furan-2-ylmethylamino)methyl)phenyl)quinazoline-4-amine dihydrochloride], the inhibition at 10 µM came out at 58%. On to `N#CCNCc1cccc(-c2ccc3ncnc(NC4CC4)c3c2)c1` [Example 320, 2-(3-(4-(cyclopropylamino)quinazolin-6-yl)benzylamino)acetonitrile], for which the inhibition at 10 µM is 72%. On to `Fc1c(CNC2CC2)cccc1-c1ccc2ncnc(NC3CC3)c2c1` [Example 324, N-cyclopropyl-6-(3-((cyclopropylamino)methyl)-2-fluorophenyl)quinazoline-4-amine], for which the inhibition at 10 µM is 55%. In the case of `O=C(O)CCC(=O)NCc1cccc(-c2ccc3ncnc(Nc4ccccc4)c3c2)c1` [Example 329, 4-oxo-4-(3-(4-(phenylamino)quinazolin-6-yl)benzylamino)butyric acid], the inhibition at 10 µM turned out to be 57%. On the same count and under the same terms, to `O=C(O)CCC(=O)NCc1cccc(-c2ccc3ncnc(NCC(=O)O)c3c2)c1` [Example 330, 4-(3-(4-(carboxymethylamino)quinazolin-6-yl)benzylamino)-4-oxobutyric acid] belongs 47%. For `COc1ccc(C(=O)N(Cc2cc(-c3ccc4ncnc(NC5CC5)c4c3)ccc2F)C2CC2)cc1OC` [Example 366, N-cyclopropyl-N-(5-(4-(cyclopropylamino)quinazolin-6-yl)-2-fluorobenzyl)-3,4-dimethoxybenzamide], the inhibition at 10 µM amounted to 90%. For the compound `O=C(c1cccnc1)N(Cc1cc(-c2ccc3ncnc(NC4CC4)c3c2)ccc1F)C1CC1` [Example 367, N-cyclopropyl-N-(5-(4-(cyclopropylamino)quinazolin-6-yl)-2-fluorobenzyl)nicotinamide], the inhibition at 10 µM was found to be 94%.

In the case of `Cc1cc(C(=O)N(Cc2cccc(-c3ccc4ncnc(NCCc5ccccc5)c4c3)c2)C2CC2)n(C)n1` [Example 369, N-cyclopropyl-1,3-dimethyl-N-(3-(4-(phenethylamino)quinazolin-6-yl)benzyl)-1H-pyrazole-5-carboxamide], the inhibition at 10 µM turned out to be 34%. With `O=C(c1ccccn1)N(Cc1cccc(-c2ccc3ncnc(NCCc4ccccc4)c3c2)c1)C1CC1` [Example 370, N-cyclopropyl-N-(3-(4-(phenethylamino)quinazolin-6-yl)benzyl)picolinamide], the inhibition at 10 µM was 52%.

For the compound `O=C(c1cccc(F)c1)N(Cc1cc(-c2ccc3ncnc(NC4CC4)c3c2)ccc1F)C1CC1` [Example 374, N-cyclopropyl-N-(5-(4-(cyclopropylamino)quinazolin-6-yl)-2-fluorobenzyl)-3-fluorobenzamide], the inhibition at 10 µM was 91%. On to `O=C(c1ccncc1)N(Cc1cccc(-c2ccc3ncnc(NCCc4ccccc4)c3c2)c1)C1CC1` [Example 377, N-cyclopropyl-N-(3-(4-(phenethylamino)quinazolin-6-yl)benzyl)isonicotinamide], for which the inhibition at 10 µM was found to be 59%. On to `Cc1cccc(CNc2ncnc3ccc(-c4cccc(CN(C5CC5)S(C)(=O)=O)c4)cc23)c1` [Example 380, N-cyclopropyl-N-(3-(4-(3-methylbenzylamino)quinazolin-6-yl)benzyl)methane sulfonamide], for which the inhibition at 10 µM was found to be 46%. On to `O=C(c1ccc(F)cc1F)N(Cc1cc(-c2ccc3ncnc(NC4CC4)c3c2)ccc1F)C1CC1` [Example 381, N-cyclopropyl-N-(5-(4-(cyclopropylamino)quinazolin-6-yl)-2-fluorobenzyl)-2,4-difluorobenzamide], for which the inhibition at 10 µM stood at 90%. `CCCCC(=O)N(Cc1cc(-c2ccc3ncnc(NC4CC4)c3c2)ccc1F)C1CC1` [Example 382, N-cyclopropyl-N-(5-(4-(cyclopropylamino)quinazolin-6-yl)-2-fluorobenzyl)pentanamide]: the inhibition at 10 µM was 89%. As to `O=C(c1cccnc1)N(Cc1cccc(-c2ccc3ncnc(NCCc4ccccc4)c3c2)c1)C1CC1` [Example 385, N-cyclopropyl-N-(3-(4-(phenethylamino)quinazolin-6-yl)benzyl)nicotinamide], the inhibition at 10 µM amounted to 35%. On to `O=C(c1c(F)c(F)c(F)c(F)c1F)N(Cc1cc(-c2ccc3ncnc(NC4CC4)c3c2)ccc1F)C1CC1` [Example 389, N-cyclopropyl-N-(5-(4-(cyclopropylamino)quinazolin-6-yl)-2-fluorobenzyl)-2,3,4,5,6-pentafluorobenzamide], for which the inhibition at 10 µM is 91%.

Regarding `CC(=O)N(Cc1cccc(-c2ccc3ncnc(NCCc4ccccc4)c3c2)c1)C1CC1` [Example 393, N-cyclopropyl-N-(3-(4-(phenethylamino)quinazolin-6-yl)benzyl)acetamide], the inhibition at 10 µM was determined as 95%. As for `Cc1cccc(CNc2ncnc3ccc(-c4cccc(CN(C(=O)c5ccccn5)C5CC5)c4)cc23)c1` [Example 395, N-cyclopropyl-N-(3-(4-(3-methylbenzylamino)quinazolin-6-yl)benzyl)picolinamide], the inhibition at 10 µM turned out to be 44%.

The experiment is the same for the next values; noted with them: IC50 mGluR5 Receptor (pig) [^3H]-MPEP Bond, 5 nM [3H]-MPEP.
`ClCCNCc1cccc(-c2ccc3ncnc(NC4CC4)c3c2)c1` [Example 315, 6-(3-((2-chloroethylamino)methyl)phenyl)-N-cyclopropylquinazoline-4-amine] yielded an IC50 of 2740 nM.
